# Assay results as given in patent publication US8889677B2, “Substituted triazoles useful as mGlu5 receptor modulators” (Boehringer Ingellheim International GmbH, priority 2012, dated 2014).
# Biological target: T1, human recombinant mGluR5 (Homo sapiens, UniProt P41594)
# T1 construct: expressed in transfected cells; host or cells: HEK 293 cell line cultured with tetracycline, hygromycin and geneticin; tetracycline removed 3-7 days before the assay
# Assay: positive modulation of mGluR5, calcium based FLIPR assay in HEK 293 cells
# Conditions: HEK 293 cell line expressing human recombinant mGluR5; EC50 of the modulation of the glutamate response (glutamate approx. 5% basal stimulation); peak height of Ca release fluorescence signal
# Experimental: The positive modulation of mGluR5 is measured in a HEK 293 cell line expressing human recombinant mGluR5 and is detected with calcium based FLIPR assay. The cells are cultured with DMEM supplemented with 10% FCS, 2 μg/mL tetracycline, 100 μg/mL hygromycin and 500 μg/mL gneticin. The cell culture media is exchanged for tetracycline-free cell culture media 3-7 days before the assay. One day before the assay the cell culture medium is exchanged to DMEM without glutamine and phenol red and supplemented with 10% FCS, 100 μg/mL hygromycin and 500 μg/mL geneticin. On the assay day, the medium of the subconfluent cultures is removed and the cells are detached by addition of 2.5 ml EDTA (0.02%) per 175 cm2 culture flask for 1 minute. The cells are resuspend in Ringer solution (140 mM NaCl, 5 mM KCl, 2.5 mM CaCl2, 1.5 mM MgCl2, 5 mM Glucose, 10 mM Hepes; adjusted to pH 7.4 with NaOH), pooled and Ringer solution added to adjust the volume to 50 mL. The cell suspension is centrifuged for […] at 1500 U/min (425 g). The supernatant is removed and the cells washed a second time with 50 ml fresh Ringer solution and centrifuged again as before. The supernatant is again removed and the pellet resuspended in Ringer solution to 1,000,000 cells/ml (1×10^6 cells/mL). The cells are plated onto BD BioCoat Poly-D-Lysine 384 well plates (20.000 cells/well; 20 μl/well). The lid covered plates are then incubated until use at 37° C./10% CO2. For dye loading, 20 μl of Calcium-4 assay kit solution (prepared according to the manufacturer's description in Ringer solution) are added to the cells and the plates are incubated for 80 min 37° C. and then 10 min at room temperature.
# Controls, Compound Dilution and Assay Execution:
# Each assay plate contained wells with “high” and “low” controls:
# Low controls 1% DMSO/ringer solution+basal glutamate activation (defined as 100% CTL).
# High controls 10 μM CDPPB+basal glutamate activation (defined as 200% CTL).
# Test compounds are dissolved and diluted in DMSO to 100-fold the desired concentrations. In a second step, the compounds are diluted in Ringer solution such that the compounds are 4-fold more concentrated than the desired final assay concentration. The final DMSO concentration was 1%.
# 20 μl of each compound solution are then transferred to the assay plate and the Ca2+ kinetic is measured to determine any intrinsic compound activity. After 5 min incubation in the FLIPR device, the second stimulation with 20 μl of glutamate in Ringer solution (glutamate concentration adjusted to approximately 5% basal stimulation of the maximal possible glutamate effect) is added and the kinetic Ca2+ response of the wells was measured for the modulation effect.
# The peak height of the Ca release related fluorescence signal (9-66) is used for the EC50. The EC50 of the modulation is calculated over a nonlinear regression with GraphPad Prism (Table 1).
# T1 sequence (P41594 21-1212): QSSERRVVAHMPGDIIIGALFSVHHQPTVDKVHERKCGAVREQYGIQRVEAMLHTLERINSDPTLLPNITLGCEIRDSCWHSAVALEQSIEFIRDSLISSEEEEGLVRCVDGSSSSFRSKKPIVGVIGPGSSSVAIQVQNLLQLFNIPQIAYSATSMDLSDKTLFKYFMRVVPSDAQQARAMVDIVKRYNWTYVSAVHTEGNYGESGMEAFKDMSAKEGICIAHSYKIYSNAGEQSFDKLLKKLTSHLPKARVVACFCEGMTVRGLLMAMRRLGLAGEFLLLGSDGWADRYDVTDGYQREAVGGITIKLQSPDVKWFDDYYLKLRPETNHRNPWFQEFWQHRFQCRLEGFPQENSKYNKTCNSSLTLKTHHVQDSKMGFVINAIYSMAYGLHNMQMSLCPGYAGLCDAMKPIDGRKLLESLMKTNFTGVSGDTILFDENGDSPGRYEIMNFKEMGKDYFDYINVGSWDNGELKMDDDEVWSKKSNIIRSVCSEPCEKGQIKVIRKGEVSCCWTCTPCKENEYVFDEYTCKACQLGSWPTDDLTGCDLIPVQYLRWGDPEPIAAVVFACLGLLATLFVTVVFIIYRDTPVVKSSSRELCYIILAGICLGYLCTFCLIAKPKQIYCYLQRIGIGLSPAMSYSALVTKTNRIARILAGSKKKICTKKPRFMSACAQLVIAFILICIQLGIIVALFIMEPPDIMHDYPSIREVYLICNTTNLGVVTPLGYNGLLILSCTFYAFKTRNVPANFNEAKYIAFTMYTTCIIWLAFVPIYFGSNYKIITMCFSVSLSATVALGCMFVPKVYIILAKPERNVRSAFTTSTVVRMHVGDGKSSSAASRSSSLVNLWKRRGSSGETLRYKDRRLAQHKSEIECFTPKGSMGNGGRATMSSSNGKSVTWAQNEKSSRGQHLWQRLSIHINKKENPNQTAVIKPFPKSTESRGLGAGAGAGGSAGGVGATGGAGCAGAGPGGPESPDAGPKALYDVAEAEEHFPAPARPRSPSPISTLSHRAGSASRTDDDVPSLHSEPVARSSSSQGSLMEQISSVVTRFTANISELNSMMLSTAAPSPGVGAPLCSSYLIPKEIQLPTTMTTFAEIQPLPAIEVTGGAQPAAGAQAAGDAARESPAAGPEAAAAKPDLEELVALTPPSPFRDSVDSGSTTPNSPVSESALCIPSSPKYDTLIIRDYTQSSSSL
row,EC50,Compound
1,0.244 µM,COc1cc(-c2nc(-c3ccc(F)cc3)nn2CC(=O)N2CCN(c3ncccn3)CC2)ccc1F [Example 07.04.077.]
2,1.33 µM,COc1cc(N2CCN(C(=O)Cn3nc(-c4ccc(F)cc4)nc3-c3ccc(F)c(OC)c3)CC2)ncn1 [Example 07.04.079.]
3,0.771 µM,CCCc1nc(-c2ccc(F)c(C)c2)nn1CC(=O)N1CCN(c2cc(OC)ncn2)CC1 [Example 07.04.080.]
4,0.353 µM,CCCc1nc(-c2ccc(F)c(C)c2)nn1CC(=O)N1CCN(c2cc(OC)ccn2)CC1 [Example 07.04.081.]
5,0.306 µM,CCCc1nc(-c2ccc(F)c(C)c2)nn1CC(=O)N1CCN(c2cc(C)ccn2)CC1 [Example 07.04.082.]
6,0.497 µM,CCCc1nc(-c2ccc(F)c(C)c2)nn1CC(=O)N1CCN(c2ccccn2)CC1 [Example 07.04.083.]
7,1.6 µM,CCCc1nc(-c2ccc(F)c(C)c2)nn1CC(=O)N1CCN(c2ncncn2)CC1 [Example 07.04.084.]
8,0.379 µM,CCCc1nc(-c2ccc(F)c(C)c2)nn1CC(=O)N1CCN(c2ncccn2)CC1 [Example 07.04.085.]
9,1.17 µM,COc1cc(N2CCN(C(=O)Cn3nc(-c4ccc(F)c(C)c4)nc3C(C)C)CC2)ncn1 [Example 07.04.086.]
10,0.904 µM,Cc1cc(-c2nc(C(C)C)n(CC(=O)N3CCN(c4ccccn4)CC3)n2)ccc1F [Example 07.04.087.]
11,0.896 µM,COc1ccnc(N2CCN(C(=O)Cn3nc(-c4ccc(F)c(C)c4)nc3C(C)C)CC2)c1 [Example 07.04.088.]
12,0.34 µM,Cc1cc(-c2nc(C(C)C)n(CC(=O)N3CCN(c4ncccn4)CC3)n2)ccc1F [Example 07.04.089.]
13,1.16 µM,Cc1ccnc(N2CCN(C(=O)Cn3nc(-c4ccc(F)c(C)c4)nc3C(C)C)CC2)c1 [Example 07.04.090.]
14,1.09 µM,CCc1nc(-c2ccc(F)c(C)c2)nn1CC(=O)N1CCN(c2ccccn2)CC1 [Example 07.04.091.]
15,0.654 µM,CCc1nc(-c2ccc(F)c(C)c2)nn1CC(=O)N1CCN(c2ncccn2)CC1 [Example 07.04.092.]
16,1.73 µM,CCc1nc(-c2ccc(F)c(C)c2)nn1CC(=O)N1CCN(c2cc(OC)ncn2)CC1 [Example 07.04.093.]
17,0.991 µM,CCc1nc(-c2ccc(F)c(C)c2)nn1CC(=O)N1CCN(c2cc(OC)ccn2)CC1 [Example 07.04.094.]
18,1.66 µM,Cc1cc(-c2nc(C)n(CC(=O)N3CCN(c4ccccn4)CC3)n2)ccc1F [Example 07.04.095.]
19,1.52 µM,COc1ccnc(N2CCN(C(=O)Cn3nc(-c4ccc(F)c(C)c4)nc3C)CC2)c1 [Example 07.04.096.]
20,1.19 µM,Cc1cc(-c2nc(C)n(CC(=O)N3CCN(c4ncccn4)CC3)n2)ccc1F [Example 07.04.097.]
21,0.738 µM,Cc1ccnc(N2CCN(C(=O)Cn3nc(-c4ccc(F)c(C)c4)nc3C)CC2)c1 [Example 07.04.098.]
22,0.499 µM,CCC(C)c1nc(-c2ccc(F)c(C)c2)nn1CC(=O)N1CCN(c2cc(C)ccn2)CC1 (stereo not shown) [Example 07.04.099.]
23,0.67 µM,CCC(C)c1nc(-c2ccc(F)c(C)c2)nn1CC(=O)N1CCN(c2cc(OC)ccn2)CC1 (stereo not shown) [Example 07.04.0100.]
24,0.294 µM,CCC(C)c1nc(-c2ccc(F)c(C)c2)nn1CC(=O)N1CCN(c2ncccn2)CC1 (stereo not shown) [Example 07.04.101.]
25,0.998 µM,CCC(C)c1nc(-c2ccc(F)c(C)c2)nn1CC(=O)N1CCN(c2ccccn2)CC1 (stereo not shown) [Example 07.04.102.]
26,0.748 µM,CCC(C)c1nc(-c2ccc(F)c(C)c2)nn1CC(=O)N1CCN(c2cc(OC)ncn2)CC1 (stereo not shown) [Example 07.04.103.]
27,1.85 µM,CCC(C)c1nc(-c2ccc(F)c(C)c2)nn1CC(=O)N1CCN(c2cccnn2)CC1 (stereo not shown) [Example 07.04.104.]

# The remaining lines, values behind:
row,Compound,EC50
1,O=C(Cn1nc(-c2ccc(F)cc2)nc1C1CCCC1)N1CCN(c2ncccn2)CC1 [Example 07.04.046.],0.586 µM
2,O=C(Cn1nc(-c2ccc(F)cc2)nc1C1CCCC1)N1CCN(c2ccccn2)CC1 [Example 07.04.047.],1.38 µM
3,Cc1ccnc(N2CCN(C(=O)Cn3nc(-c4ccc(F)cc4)nc3C3CCCC3)CC2)c1 [Example 07.04.048.],0.591 µM
4,COc1cccc(-c2nc(-c3ccc(F)cc3)n(CC(=O)N3CCN(c4ccccn4)CC3)n2)c1 [Example 07.04.049.],0.037 µM
5,COc1cccc(-c2nc(-c3ccc(F)cc3)nn2CC(=O)N2CCN(c3ccccn3)CC2)c1 [Example 07.04.050.],0.459 µM
6,COc1cccc(-c2nc(C3CCCCC3)n(CC(=O)N3CCN(c4ncccn4)CC3)n2)c1 [Example 07.04.051.],0.997 µM
7,COc1cccc(-c2nc(C3CCCCC3)n(CC(=O)N3CCN(c4cc(C)ccn4)CC3)n2)c1 [Example 07.04.052.],0.898 µM
8,COc1cccc(-c2nc(C3CCCCC3)n(CC(=O)N3CCN(c4ccccn4)CC3)n2)c1 [Example 07.04.053.],1.15 µM
9,COc1ccc(-c2nc(-c3ccccc3)n(CC(=O)N3CCN(c4ccccn4)CC3)n2)cc1 [Example 07.04.054.],0.1 µM
10,CCOc1ccnc(N2CCN(C(=O)Cn3nc(-c4ccc(OC)cc4)nc3-c3ccccc3)CC2)c1 [Example 07.04.055.],0.101 µM
11,COc1ccc(-c2nc(-c3ccccc3)n(CC(=O)N3CCN(c4cc(OC)ccn4)CC3)n2)cc1 [Example 07.04.056.],0.064 µM
12,Cc1cc(-c2nc(-c3ccccc3)n(CC(=O)N3CCN(c4ncc(Br)cn4)CC3)n2)ccc1Br [Example 07.04.057.],0.075 µM
13,Cc1cc(-c2nc(-c3ccccc3)n(CC(=O)N3CCN(c4ncc(Cl)cn4)CC3)n2)ccc1F [Example 07.04.058.],0.025 µM
14,Cc1cc(-c2nc(-c3ccccc3)n(CC(=O)N3CCN(c4cccnn4)CC3)n2)ccc1F [Example 07.04.059.],0.16 µM
15,COc1cc(N2CCN(C(=O)Cn3nc(-c4ccc(F)c(C)c4)nc3-c3ccccc3)CC2)ncn1 [Example 07.04.060.],0.055 µM
16,Cc1cc(-c2nc(-c3ccccc3)n(CC(=O)N3CCN(c4ccccn4)CC3)n2)ccc1F [Example 07.04.061.],0.067 µM

row,Compound,EC50
1,Cc1ccnc(N2CCN(C(=O)Cn3nc(-c4ccc(F)c(C)c4)nc3-c3ccccc3)CC2)c1 [Example 07.04.062.],0.057 µM
2,COc1ccnc(N2CCN(C(=O)Cn3nc(-c4ccc(F)c(C)c4)nc3-c3ccccc3)CC2)c1 [Example 07.04.063.],0.061 µM
3,COc1cnnc(N2CCN(C(=O)Cn3nc(-c4ccc(F)c(C)c4)nc3-c3ccccc3)CC2)c1 [Example 07.04.064.],0.192 µM
4,COc1cc(N2CCN(C(=O)Cn3nc(-c4ccc(F)c(C)c4)nc3C3CCCCC3)CC2)ncn1 [Example 07.04.065.],0.296 µM
5,Cc1cc(-c2nc(C3CCCCC3)n(CC(=O)N3CCN(c4ncccn4)CC3)n2)ccc1F [Example 07.04.066.],0.101 µM
6,Cc1ccnc(N2CCN(C(=O)Cn3nc(-c4ccc(F)c(C)c4)nc3C3CCCCC3)CC2)c1 [Example 07.04.067.],0.207 µM
7,COc1ccnc(N2CCN(C(=O)Cn3nc(-c4ccc(F)c(C)c4)nc3C3CCCCC3)CC2)c1 [Example 07.04.068.],0.246 µM
8,Cc1cc(-c2nc(C3CCCCC3)n(CC(=O)N3CCN(c4ncc(Cl)cn4)CC3)n2)ccc1F [Example 07.04.069.],0.229 µM
9,Cc1cc(-c2nc(C3CCCCC3)n(CC(=O)N3CCN(c4ncc(Br)cn4)CC3)n2)ccc1F [Example 07.04.070.],0.318 µM
10,Cc1cc(-c2nc(C3CCCCC3)n(CC(=O)N3CCN(c4ccccn4)CC3)n2)ccc1F [Example 07.04.071.],0.347 µM
11,Cc1cc(-c2nc(C3CCCCC3)n(CC(=O)N3CCN(c4cccnn4)CC3)n2)ccc1F [Example 07.04.072.],0.257 µM
12,Cc1cc(-c2nc(-c3ccccc3)nn2CC(=O)N2CCN(c3ncccn3)CC2)ccc1F [Example 07.04.073.],0.087 µM
13,COc1cc(N2CCN(C(=O)Cn3nc(-c4ccccc4)nc3-c3ccc(F)c(C)c3)CC2)ncn1 [Example 07.04.074.],0.325 µM
14,Cc1ccnc(N2CCN(C(=O)Cn3nc(-c4ccccc4)nc3-c3ccc(F)c(C)c3)CC2)c1 [Example 07.04.075.],0.657 µM
15,Cc1cc(-c2nc(-c3ccccc3)nn2CC(=O)N2CCN(c3ccccn3)CC2)ccc1F [Example 07.04.076.],0.22 µM
